Measurements from patent US20260285850A1, “SUBSTITUTED OXAZOLIDINONES AND IMIDAZOLINONES AS HERBICIDES” (FMC CORPORATION, priority 2023, published 2026).

Legend:
Assay type in all cases: in vivo
[1] = tested on: barnyardgrass (Echinochloa crus-galli); assay: Test A preemergence soil spray, visual injury rating 0-100; settings: 10 days, 0 = no effect, 100 = complete control; for Barnyardgrass plant response rating (0-100): 31 g ai/ha; for Barnyardgrass plant response rating (0 to 100 scale): 125 g ai/ha
In short: (§1)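 Loam-sand pots got test material in surfactant-containing solvent, either as a directed soil spray before emergence or on plants at the one- to two-leaf stage. Visual injury (0-100) was read after ten greenhouse days.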

[2] = tested on: blackgrass (Alopecurus myosuroides); assay: as above; settings: 10 days, 0 = no effect, 100 = complete control; for Blackgrass plant response rating (0-100): 31 g ai/ha; for Blackgrass plant response rating (0 to 100 scale): 125 g ai/ha
In short: as §1

corn (Zea mays) [3] = assay: as above; settings: 10 days, 0 = no effect, 100 = complete control; for Corn plant response rating (0-100): 31 g ai/ha; for Corn plant response rating (0 to 100 scale): 125 g ai/ha
In short: as §1

kochia (Bassia scoparia) [4] = assay: as above; settings: 10 days, 0 = no effect, 100 = complete control; for Kochia plant response rating (0-100): 31 g ai/ha; for Kochia plant response rating (0 to 100 scale): 125 g ai/ha
In short: as §1

[5] = tested on: oat, wild (wild oat, Avena fatua); assay: as above; settings: 10 days, 0 = no effect, 100 = complete control; for Oat, Wild plant response rating (0-100): 31 g ai/ha; for Oat, Wild plant response rating (0 to 100 scale): 125 g ai/ha
In short: as §1

[6] = tested on: palmer (palmer amaranth, palmer pigweed, Amaranthus palmeri); assay: as above; settings: 10 days, 0 = no effect, 100 = complete control; for Amaranth, Palmer plant response rating (0-100): 31 g ai/ha; for Amaranth, Palmer plant response rating (0 to 100 scale): 125 g ai/ha
In short: as §1

[7] = tested on: ragweed (common ragweed, Ambrosia artemisiifolia); assay: as above; settings: 10 days, 0 = no effect, 100 = complete control; for Ragweed plant response rating (0-100): 31 g ai/ha; for Ragweed plant response rating (0 to 100 scale): 125 g ai/ha
In short: as §1

[8] = tested on: ryegrass, Italian (italian ryegrass, Lolium multiflorum); assay: as above; settings: 10 days, 0 = no effect, 100 = complete control; for Ryegrass, Italian plant response rating (0-100): 31 g ai/ha; for Ryegrass, Italian plant response rating (0 to 100 scale): 125 g ai/ha
In short: as §1

soybean (Glycine max) [9] = assay: as above; settings: 10 days, 0 = no effect, 100 = complete control; for Soybean plant response rating (0-100): 31 g ai/ha; for Soybean plant response rating (0 to 100 scale): 125 g ai/ha
In short: as §1

[10] = tested on: wheat (Triticum aestivum); assay: as above; settings: 10 days, 0 = no effect, 100 = complete control; for Wheat plant response rating (0-100): 31 g ai/ha; for Wheat plant response rating (0 to 100 scale): 125 g ai/ha
In short: as §1

[11] = tested on: barnyardgrass (Echinochloa crus-galli); assay: Test A postemergence application, visual injury rating 0-100; settings: Postemergence
In short: as §1

[12] = tested on: blackgrass (Alopecurus myosuroides); assay: as above; settings: Postemergence
In short: as §1

corn (Zea mays) [13] = assay: as above; settings: Postemergence
In short: as §1

[14] = tested on: galium (catchweed bedstraw, Galium aparine); assay: as above; settings: Postemergence
In short: as §1

[15] = tested on: horseweed (Erigeron canadensis); assay: as above; settings: Postemergence
In short: as §1

kochia (Bassia scoparia) [16] = assay: as above; settings: Postemergence
In short: as §1

[17] = tested on: oat, wild (wild oat, Avena fatua); assay: as above; settings: Postemergence
In short: as §1

[18] = tested on: palmer (palmer amaranth, palmer pigweed, Amaranthus palmeri); assay: as above; settings: Postemergence
In short: as §1

[19] = tested on: ragweed (common ragweed, Ambrosia artemisiifolia); assay: as above; settings: Postemergence
In short: as §1

[20] = tested on: ryegrass, Italian (italian ryegrass, Lolium multiflorum); assay: as above; settings: Postemergence
In short: as §1

soybean (Glycine max) [21] = assay: as above; settings: Postemergence
In short: as §1

[22] = tested on: wheat (Triticum aestivum); assay: as above; settings: Postemergence
In short: as §1

[23] = tested on: barnyardgrass (Echinochloa crusgalli); assay: Test B flooded paddy test, visual plant response rating 0-100; settings: 250 g ai/ha, Flood, applied to paddy water, evaluated after 13 days
In short: (§2)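 Compounds applied to standing paddy water (3 cm above soil, maintained for the test duration) on 2-leaf-stage plants; visual rating vs controls at 13 days, greenhouse.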

[24] = tested on: ducksalad (Heteranthera limosa); assay: as above; settings: 250 g ai/ha, Flood, applied to paddy water, evaluated after 13 days
In short: as §2

rice (Oryza sativa) = assay: as above; settings: 250 g ai/ha, Flood, applied to paddy water, evaluated after 13 days
In short: as §2

[25] = tested on: sedge, umbrella (small-flower umbrella sedge, Cyperus difformis); assay: as above; settings: 250 g ai/ha, Flood, applied to paddy water, evaluated after 13 days
In short: as §2

[26] = 31 g ai/ha, greenhouse 10 days, 0 no effect, 100 complete control
[27] = 125 g ai/ha, 10 days, 0 is no effect, 100 is complete control

CSCCOC(=O)C1C=CC(NC(=O)C2(C)CN(c3cc(Cl)cc(Cl)c3)C(=O)O2)C1 (stereo not drawn) [Compound 69]
85: Plant response rating, Barnyardgrass (0 to 100 scale, 0 is no effect and 100 is complete control) [23]
20: Ragweed plant response rating (0 to 100 scale) [7] | Soybean plant response rating (0-100) (soybean (Glycine max) [9])
90: Barnyardgrass plant response rating (0 to 100 scale) [1] | Kochia plant response rating (0 to 100 scale) (kochia (Bassia scoparia) [4]) | Amaranth, Palmer plant response rating (0-100) [6] | Amaranth, Palmer plant response rating (0 to 100 scale) [6] | Barnyardgrass plant response rating (0 to 100 scale) [11, 26] | Barnyardgrass plant response rating (0 to 100 scale) [11, 27] | Blackgrass plant response rating (0 to 100 scale) [12, 26] | Blackgrass plant response rating (0 to 100 scale) [12, 27] | Oat, Wild plant response rating (0 to 100 scale) [17, 26] | Oat, Wild plant response rating (0 to 100 scale) [17, 27] | Amaranth, Palmer / Pigweed, Palmer plant response rating (0 to 100 scale) [18, 26] | Amaranth, Palmer / Pigweed, Palmer plant response rating (0 to 100 scale) [18, 27] | Soybean plant response rating (0 to 100 scale) (soybean (Glycine max) [21]; [27]) | Wheat plant response rating (0 to 100 scale) [22, 26] | Wheat plant response rating (0 to 100 scale) [22, 27]
50: Soybean plant response rating (0 to 100 scale) (soybean (Glycine max) [9]) | Ragweed plant response rating (0 to 100 scale) [19, 26] | Plant response rating, Rice (0 to 100 scale, 0 is no effect and 100 is complete control) (rice (Oryza sativa))
30: Ryegrass, Italian plant response rating (0-100) [8] | Wheat plant response rating (0-100) [10]
95: Plant response rating, Sedge, Umbrella (0 to 100 scale, 0 is no effect and 100 is complete control) [25]
100: Corn plant response rating (0 to 100 scale) (corn (Zea mays) [13]; [26]) | Corn plant response rating (0 to 100 scale) (corn (Zea mays) [13]; [27])
0: Corn plant response rating (0-100) (corn (Zea mays) [3]) | Oat, Wild plant response rating (0-100) [5] | Ragweed plant response rating (0-100) [7]
60: Barnyardgrass plant response rating (0-100) [1] | Blackgrass plant response rating (0 to 100 scale) [2] | Corn plant response rating (0 to 100 scale) (corn (Zea mays) [3]) | Oat, Wild plant response rating (0 to 100 scale) [5] | Soybean plant response rating (0 to 100 scale) (soybean (Glycine max) [21]; [26]) | Plant response rating, Ducksalad (0 to 100 scale, 0 is no effect and 100 is complete control) [24]
70: Wheat plant response rating (0 to 100 scale) [10] | Horseweed plant response rating (0 to 100 scale) [15, 26] | Ragweed plant response rating (0 to 100 scale) [19, 27] | Ryegrass, Italian plant response rating (0 to 100 scale) [20, 26] | Ryegrass, Italian plant response rating (0 to 100 scale) [20, 27]
80: Ryegrass, Italian plant response rating (0 to 100 scale) [8] | Galium plant response rating (0 to 100 scale) [14, 26] | Galium plant response rating (0 to 100 scale) [14, 27] | Horseweed plant response rating (0 to 100 scale) [15, 27] | Kochia plant response rating (0 to 100 scale) (kochia (Bassia scoparia) [16]; [26]) | Kochia plant response rating (0 to 100 scale) (kochia (Bassia scoparia) [16]; [27])
40: Blackgrass plant response rating (0-100) [2] | Kochia plant response rating (0-100) (kochia (Bassia scoparia) [4])

CC(C)OC(=O)C1=CCC(NC(=O)C2(C)CN(c3cc(Cl)cc(Cl)c3)C(=O)O2)C1 (stereo not drawn) [Compound 70]
70: Ryegrass, Italian plant response rating (0 to 100 scale) [8] | Wheat plant response rating (0 to 100 scale) [10] | Ryegrass, Italian plant response rating (0 to 100 scale) [20, 26] | Ryegrass, Italian plant response rating (0 to 100 scale) [20, 27]
98: Plant response rating, Sedge, Umbrella (0 to 100 scale, 0 is no effect and 100 is complete control) [25]
100: Corn plant response rating (0 to 100 scale) (corn (Zea mays) [13]; [27])
20: Corn plant response rating (0 to 100 scale) (corn (Zea mays) [3]) | Oat, Wild plant response rating (0 to 100 scale) [5]
65: Plant response rating, Ducksalad (0 to 100 scale, 0 is no effect and 100 is complete control) [24]
50: Blackgrass plant response rating (0 to 100 scale) [12, 26] | Ragweed plant response rating (0 to 100 scale) [19, 27] | Plant response rating, Barnyardgrass (0 to 100 scale, 0 is no effect and 100 is complete control) [23]
60: Plant response rating, Rice (0 to 100 scale, 0 is no effect and 100 is complete control) (rice (Oryza sativa))
0: Corn plant response rating (0-100) (corn (Zea mays) [3]) | Kochia plant response rating (0-100) (kochia (Bassia scoparia) [4]) | Oat, Wild plant response rating (0-100) [5] | Ryegrass, Italian plant response rating (0-100) [8] | Soybean plant response rating (0-100) (soybean (Glycine max) [9]) | Wheat plant response rating (0-100) [10] | Horseweed plant response rating (0 to 100 scale) [15, 26] | Horseweed plant response rating (0 to 100 scale) [15, 27] | Ragweed plant response rating (0 to 100 scale) [19, 26]
90: Barnyardgrass plant response rating (0 to 100 scale) [1] | Amaranth, Palmer plant response rating (0 to 100 scale) [6] | Barnyardgrass plant response rating (0 to 100 scale) [11, 26] | Barnyardgrass plant response rating (0 to 100 scale) [11, 27] | Corn plant response rating (0 to 100 scale) (corn (Zea mays) [13]; [26]) | Amaranth, Palmer / Pigweed, Palmer plant response rating (0 to 100 scale) [18, 26] | Amaranth, Palmer / Pigweed, Palmer plant response rating (0 to 100 scale) [18, 27] | Soybean plant response rating (0 to 100 scale) (soybean (Glycine max) [21]; [27]) | Wheat plant response rating (0 to 100 scale) [22, 27]
40: Kochia plant response rating (0 to 100 scale) (kochia (Bassia scoparia) [4])
30: Barnyardgrass plant response rating (0-100) [1] | Blackgrass plant response rating (0 to 100 scale) [2] | Amaranth, Palmer plant response rating (0-100) [6] | Soybean plant response rating (0 to 100 scale) (soybean (Glycine max) [9]) | Oat, Wild plant response rating (0 to 100 scale) [17, 26]
10: Blackgrass plant response rating (0-100) [2] | Ragweed plant response rating (0-100) [7] | Ragweed plant response rating (0 to 100 scale) [7]
80: Blackgrass plant response rating (0 to 100 scale) [12, 27] | Galium plant response rating (0 to 100 scale) [14, 26] | Galium plant response rating (0 to 100 scale) [14, 27] | Kochia plant response rating (0 to 100 scale) (kochia (Bassia scoparia) [16]; [26]) | Kochia plant response rating (0 to 100 scale) (kochia (Bassia scoparia) [16]; [27]) | Oat, Wild plant response rating (0 to 100 scale) [17, 27] | Soybean plant response rating (0 to 100 scale) (soybean (Glycine max) [21]; [26]) | Wheat plant response rating (0 to 100 scale) [22, 26]
